Source: a melting point compilation (Tetko et al.; mined from patent text by program, amines drawn as free bases though some values may be those of a salt)

| Structure (SMILES) | melting point [°C] |
| --- | --- |
| Cc1ccc(-c2cccc(/C=C/C(=O)Nc3ccc(C(O)c4ccccn4)cc3)c2)cc1 (stereo not drawn) | 162 to 165 |
| COC(=O)C=Cc1cc(O)cc2cc(-c3ccc(O)cc3)oc12 | 231 to 234 |
| NC(=S)NN=C(CCC(=O)NCc1ccccc1)c1ccccc1 | 162 to 164 |
| FCc1ccc(-c2ccc(-c3cn([C@H]4CN5CCC4CC5)nn3)s2)cc1 | 199 |
| Cc1ccc2c(c1)C=Cc1ncccc1C2c1c[nH]c(=O)[nH]c1=S (stereo not drawn) | > 250 |
| O=C(O)[C@@H]1C[C@@H](O)CN1C(=O)OCc1ccc([N+](=O)[O-])cc1 | 136 to 137 |
| CN1CCN(C(c2ccc(Cl)cc2)c2cccc(C=CC(=O)O)c2)CC1 (stereo not drawn) | 131 to 141 |
| Cc1nccc(N2CCC(CN3CCN(C(=O)c4ccc(F)cc4)CC3)CC2)n1 | 127 to 128 |
| Cc1oc(-c2ccccc2)nc1COc1ccc2cc(Cn3cc(CCC(=O)O)c(-c4ccccc4)c3)ccc2c1 | 122 to 123 |
| COc1ccc2sc(-c3ccc(OCCN4CCCC4)cc3)c(C(=O)c3ccc(OC4CCCCC4N4CCCCC4)cc3)c2c1 (stereo not drawn) | 63 to 66 |
| c1ccc2c(Nc3ccc4c(c3)CCC4)ncc(Sc3ccncc3)c2c1 | 100 to 103 |
| O=C1N[C@H](C(=O)O)CSCCCCCCCCC1CS (stereo partly drawn) | 165 to 168 |
| O=C(Nc1ccc2c(c1)OCCO2)c1ccc2cc(Br)ccc2c1 | 223 |
| O=C(c1ccccc1)N1CCNc2ncc(-c3cccnc3)cc21 | 219 to 220 |
| COC(=O)c1cc(C(=O)OC)cc(-c2cc(C(F)(F)F)cc(C(F)(F)F)c2)c1 | 151 |
| O=S(=O)(c1ccccc1)n1c(-c2cccc(C(O)c3cc4ccccc4n3S(=O)(=O)c3ccccc3)c2)cc2ccccc21 (stereo not drawn) | 81 to 83 |
| OCCCc1cc2c(cc1O)CCO2 | 103 to 104 |
| O=C(NCc1ccc(Cl)cc1)c1cn(CCN2CCOCC2)c2ccc(C#CCO)cc2c1=O | 215 to 218 |
| CC(C)(C)c1ccc(-c2cc(=O)cc(N3CCOCC3)s2)cc1 | 172 to 173 |
| Brc1c(NC2=NCCN2)ccc2ncn(CC3CCCCC3)c12 | 153 to 155 |

| Structure (SMILES) | melting point [°C] |
| --- | --- |
| CN1C(=O)C2(COc3cc4c(cc32)OCCO4)c2c(C(=O)Oc3ccccc3)cccc21 (stereo not drawn) | 184 to 186 |
| O=C1Nc2ccccc2C12COc1cc3c(cc12)CCO3 (stereo not drawn) | 105 to 107 |
| COc1cc(OC)nc(Sc2cccc(Cl)c2C(=O)O)n1 | 148 to 151 |
| CC1(C)COP(=O)(O)OC1c1ccc2ccccc2c1 (stereo not drawn) | 237 to 238 |
| O=S(=O)(c1ccc(O)cc1)c1ccc(Cl)cc1 | 143 to 145 |
| CN1CC(=O)NC1=NC(=O)Nc1cccc(Cl)c1 | 180 |
| O=C(O)CCc1cn(Cc2ccc(OCc3cccs3)cc2)cc1-c1ccccc1 | 127 to 128 |
| CC1(C)O[C@]23C[C@H]1CC[C@]2(C)CCCC3=O | 55 to 56 |
| O=C(Cc1ccc2c(c1)Cc1c-2[nH]c(=O)c2nccn12)NCc1ccccc1 | > 260 |
| CN(C)c1ccc(C2(c3ccccc3)Oc3ccccc3-c3[nH]c4ccccc4c32)cc1 (stereo not drawn) | 229 |
| OC(CCl)(Cc1ccc(Cl)cc1Cl)c1ccc(-c2ccccc2)cc1 (stereo not drawn) | 84 |
| N#Cc1nn(-c2c(Cl)cc(C(F)(F)F)cc2Cl)c(C(O)C(F)(F)F)c1SC(F)(F)F (stereo not drawn) | 106 |
| CCCCCCCCc1ccc(C#Cc2c3ccccc3c(C#Cc3ccc(CCCCCCCC)cc3)c3ccccc23)cc1 | 131 to 133 |
| ON=Cc1ccc(-c2ccc(O)cc2)cc1 | 207 to 210 |
| Oc1cccc2c1CCCC2n1cc[nH]c1=S (stereo not drawn) | 188 to 190 |
| COc1cc(CCCC2OC(=O)NC2=O)ccc1OCc1nc(-c2ccccc2)no1 (stereo not drawn) | 110 to 111 |
| COc1cc2cccc3c2c(n1)-c1ccccc1C3=O | 190 to 192 |
| O=C1c2c(O)cccc2C(O)(c2cccs2)c2cccc(O)c21 | 191 to 192 |
| O=CNc1csc(Cl)n1 | 138 |
| O=C(c1ccc(Cl)cc1)c1ccc2c(c1)C(c1cccc(Cl)c1)=NCc1nnnn1-2 | 220 |

Next, values leading:

| melting point [°C] | Structure (SMILES) |
| --- | --- |
| 218 to 219 | Cc1oc2cc3sc4ccccc4c3c(-c3cc(I)c(O[C@H](C)C(=O)O)c(I)c3)c2c1C |
| 133 to 135 | CC1(CSC#N)SC2C(NC(=O)Cc3ccccc3)C(=O)N2C1C(=O)OCC(Cl)(Cl)Cl (stereo not drawn) |
| 304 | Cc1cc2nc(O)c(-c3c(F)cc(F)cc3F)c(O)n2n1 |
| 62 | C#Cc1ccc(C(=O)OC)c(O)c1 |
| 98 to 102 | C#CCOc1nc(NN)c(C(F)(F)F)cc1Cl |
| 84 to 85 | CC(C)c1nn(-c2ccc(C(F)(F)F)cc2)cc1CO |
| 155 to 157 | CCOC(=O)C1=C(CSC(C)=O)NC=C(C(=O)OC)C1c1cccc(Cl)c1Cl (single isomer, unassigned; (-)) |
| 118 to 123 | CCOC(=O)C(C)(C(C)=O)c1ccc(N)c(NC)c1C#N (stereo not drawn) |
| 183 to 186 | N#Cc1ccc(CNC(=O)c2cccc(C#CCn3cncn3)c2)cc1 |
| 53 to 54 | COc1ccc(C(=O)NCCN(C)C)cc1 |
| 221 to 222 | Cc1nc(-c2ccc(F)cc2)n(-c2ccc(S(N)(=O)=O)cn2)n1 |
| 121 to 122 | Cc1ccc(S(=O)(=O)Nc2ccc(SC#N)cc2[N+](=O)[O-])cc1 |
| 215 to 217 | Cc1ccc(NC(=O)c2nc[nH]c2C)cc1Cl |
| 141 to 143 | Cc1c(N)ccc(Cc2ccc(N)c(C)c2C)c1C |
| 58 to 61 | CCOC(=O)c1ccc([N+](=O)[O-])c(O)c1Br |
| 263 to 265 | COCCOc1ccc(N=Nc2c(C#N)[nH]n(-c3ccccc3)c2=O)cc1S(=O)(=O)O |
| 181 to 183 | N#Cc1ccc(OCc2cccnc2)cc1OC(CCC(=O)O)c1cccc2c1OCO2 (racemic) |
| 235 to 237 | Cn1c(=O)cc(C(F)(F)F)[nH]c1=O |
| 224 to 227 | CCOCc1nc2c(N)nc3c(c2n1CCCCS(N)(=O)=O)CCCC3 |
| 109 to 111 | COCOc1c(NC(=O)N(CCCCCC(=O)O)c2ccccc2)cc(OC)cc1C(C)(C)C |

| melting point [°C] | Structure (SMILES) |
| --- | --- |
| 159 to 160 | COc1cc(C(F)(F)F)nn1-c1ccc(NC(=O)c2snnc2C)cc1 |
| 139 to 141 | Cc1nc(-c2ccc(-c3cc(C(F)(F)F)nn3-c3ccc(S(C)(=O)=O)c(F)c3)cc2)cs1 |
| 174 | COc1cc(NC(=O)OCCCN2CCN(c3ccc(Cl)cc3)CC2)cc(OC)c1OC |
| 169 to 172 | COc1cc2ncnc(N3CCC(C(C)CN4C(C)=CC(C)=NS4(=O)=O)CC3)c2cc1OC (stereo not drawn) |
| 212 to 213 | CCn1c(C)c(C(=O)c2nccnc2C(=O)O)c2ccccc21 |
| 287 to 288 | Cc1nc(N)sc1C(=O)c1cccnc1 |
| 203 to 205 | COC(=O)c1ccc(CCCCc2c(N)nc(N)nc2O)cc1 |
| 127 | CC(=O)OC1CSC(Oc2cncc(-c3ccoc3)c2)C(OC(C)=O)C1OC(C)=O (stereo not drawn) |
| 107 to 109 | COC(=O)CC[C@@H](Cc1cn(Cc2ccccc2)c2ccccc12)NC(=O)CCCCCCc1ccccc1 |
| 193 | Cn1cnc(COc2nn3c(-c4ccccc4F)nnc3cc2C2(C)CCC(F)(F)CC2)n1 |
| 109 to 110 | CC(=O)OCc1c(C)n(Cc2ccccc2)c2c(OCc3ccc(F)cc3)nncc12 |
| 149 | CC(C)Cn1c(=O)n(C)c(=O)c2c(SCCCC(=O)O)n(Cc3cccc4ccccc34)nc21 |
| 163 to 164 | OCc1cn(-c2ccc3c(c2)OC(F)(F)O3)cn1 |
| 242 to 244 | CN(C)C(=O)c1nn(-c2ccc(Cl)cc2)c(=O)c2c(N)scc12 |
| 180 to 182 | CCOC(=O)c1c(C)[nH]c(-c2ccncc2)c1C |
| 136 to 139 | COc1cc(OC)nc(C(C)c2ccccc2N)n1 (stereo not drawn) |
| 192 to 193 | CC(C)Oc1c(C(=O)O)sc2c1CS(=O)CC2 (stereo not drawn) |
| 150 | O=C([C@@H](Cc1ccc(Cl)cc1)NC1CCC(O)(c2ccc(F)cc2)CC1)N1CCC(Cn2cncn2)(C2CCCCC2)CC1 (stereo partly drawn) |
| 117 to 119 | O=Cc1ccc(S(=O)(=O)CCCl)cc1Cl |
| 193 to 195 | O=C(NCc1ccc(Cl)cc1)c1cnc2sc(CN3CCOCC3)cc2c1O |

| melting point [°C] | Structure (SMILES) |
| --- | --- |
| 131 to 134 | COc1ccc(-c2cn3ccccc3n2)cc1 |
| 168 to 170 | COP(=O)(Cc1cccc2cccc(CP(=O)(OC)OC)c12)OC |
| 143 to 147 | CCCCc1nc2c(N)nc3c(c2n1CC(C)C)NCCC3 |
| 167 to 168 | CC1(C)C(=O)C(C)(C)c2cc3[nH]c(SCc4ccccn4)nc3cc21 |
| 266 to 269 | COC(=O)c1ccc(C=Cc2ccc([N+](=O)[O-])c(C#N)c2)cc1 |
| 142 | COc1cc(C(=O)c2c(C)c(OCCO)c3ccccn23)ccc1[N+](=O)[O-] |
| 241 to 242 | COCCOc1cc2ncnc(NC3=CC(=O)C(NCc4cccc(C)c4)=CC3=O)c2cc1OC |
| 68 to 70 | CCCCc1nnc(-c2ccc([N+](=O)[O-])cc2)o1 |
| 130 to 135 | CSCC[C@H](NC(=O)c1cc(NC(Cn2ccnc2)c2ccc(F)cc2)ccc1Cc1ccc(F)cc1)C(=O)O (stereo partly drawn) |
| 72 to 74 | COc1ccc(O)c(CC=Cc2ccccc2C#N)c1 |
| 178 to 179 | O=C(Cn1c(-c2ccc(Br)cc2)nc2cccnc21)NCCN1CCCCC1 |
| 58 to 63 | CCCn1nc(C(C)C)c(C(=O)OCOC(C)=O)c1Cc1ccc(-c2ccccc2-c2nnn[nH]2)cc1 |
| 209 to 210 | CS(=O)(=O)c1ccc(Oc2cc(OCc3ccccc3)c3[nH]c(C#N)cc3c2)cc1 |
| 160 | Cc1nn(C(CCCc2ccccc2)C(C)O)c2ncn(Cc3ccc(Cl)c(Cl)c3)c(=O)c12 (stereo not drawn) |
| 161 to 162 | CCCSc1c(C=NO)c(=O)n(C)c(=O)n1C |
| 134 to 135 | COc1ccc2c(=O)nc(-c3cccc(CCC(=O)OC(C)(C)C)n3)sc2c1 |
| 86 to 88 | CC(C)Oc1ccc(CCCOc2cc(CCC(=O)O)n(-c3ccccc3)n2)c(Oc2ncc(C(F)(F)F)cc2Cl)c1 |
| 50 to 51 | CCn1nc(C#N)c(Br)c1CC(C)C |
